Laboratory results taken from US20150031872A1, “METHOD FOR SCREENING ANTICANCER DRUGS, AND ANTICANCER DRUG THAT INDUCES CELL DEATH AND USES SUBSTANCE THAT INCREASES GRANZYME M ACTIVITY AS ACTIVE INGREDIENT” (LSIP, LLC, priority 2012, published 2015).
Peptide text beside a SMILES is read from it. * marks the point of attachment. CH2Cl = ClC*

Tests used:
[1] = tested on: granzyme M in HL60 cells; assay: Western blot, expression of granzyme M; type: cell-based, human; conditions: 5 μM AraC, FIG. 6
Method: (§1) Using U937 cells, Colo201 cells (negative control) and KHYG-1 cells (positive control), which are human NK cells, 5 μM of AraC was added to the culture medium, and culturing was carried out. Immediately after culturing initiation (0 h), after 1 hour, after 3 hours and after 5 hours, cells were recovered from the cell medium, and protein groups were extracted from the cells. The amount of protein group was measured, and a certain amount of protein group was molecular weight fractionated by way of electrophoresis of a conventional method.
(§2) Except for the point of using HL60 cells and KHYG-1 cells (positive control section), the expression of granzyme M and perforin was examined at the same conditions as Test Example 3.

[2] = tested on: perforin in U937 cells; assay: Western blot, expression of perforin; type: cell-based, human; conditions: 5 μM AraC, FIG. 5
Method: Using U937 cells, Colo201 cells (negative control) and KHYG-1 cells (positive control), which are human NK cells, 5 μM of AraC was added to the culture medium, and culturing was carried out. Immediately after culturing initiation (0 h), after 1 hour, after 3 hours and after 5 hours, cells were recovered from the cell medium, and protein groups were extracted from the cells. The amount of protein group was measured, and a certain amount of protein group was molecular weight fractionated by way of electrophoresis of a conventional method. The expression of perforin was detected by way of western blot of a conventional method. […] It should be noted that Mouse Anti-Human Perforin, Monoclonal Antibody (catalog number: 3465-6-250) by Mabtech was used as the perforin antibody.

[3] = molecular target: T1, granzyme M in HL60 cells (Homo sapiens, UniProt P51124); assay: Granzyme M activity in extracted protein group (substrate, OD 405 nm); type: cell-based; conditions: 5 μM AraC, 0 h, 3, 5 and 7 hours, FIG. 7
T1 construct: endogenous in cells; host or cells: U937, HL60
T1 sequence (P51124 26-257): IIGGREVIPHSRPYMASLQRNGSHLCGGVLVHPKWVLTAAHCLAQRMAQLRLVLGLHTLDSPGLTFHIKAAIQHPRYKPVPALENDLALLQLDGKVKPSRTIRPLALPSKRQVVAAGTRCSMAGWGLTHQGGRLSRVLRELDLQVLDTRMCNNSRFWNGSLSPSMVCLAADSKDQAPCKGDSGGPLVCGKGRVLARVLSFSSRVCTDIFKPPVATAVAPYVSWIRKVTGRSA
Method: (§3) At the same conditions (5 μM AraC) as Test Example 1, U937 cells, HL60 cells and KHYG-1 cells (positive control section) were cultured, cells were recovered from the culture medium immediately after culturing initiation (0 h), after 3 hours, after 5 hours and after 7 hours, and the protein groups were extracted from the cells.
(§4) To a measurement buffer (100 mM HEPES, 50 mM CaCl2, pH 7.4), 30 μg of protein group was introduced, and after adding substrate in an amount for a concentration of 200 μM, was incubated at 37° C. for 1 hour, and the absorbance at OD 405 nm was measured. It should be noted that the substrate was one synthesized by referencing Sami Mahrus, Walter Kisiel, and Charles S. Craik, Granzyme M is a regulatory protease that inactivates proteinase inhibitor 9, an endogenous inhibitor of granzyme B, J. Biol. Chem., 279, pp. 54275-54282, 2004. The vertical axis in FIG. 7 is an activity relative value for granzyme M calculated based on the absorbance.

[4] = tested on: granzyme M in U937 cells; assay: Western blot, expression of granzyme M; type: cell-based, human; conditions: 5 μM AraC, 0 h, 1, 3 and 5 hours, FIG. 4
Method: as §1
By way of western blot of a conventional method, the expression of granzyme M was detected. […] The expression of granzyme M in U937 cells, which are cancer cells, is a novel discovery that had not been known conventionally. […] It should be noted that GZMM Antibody (catalog number: AP6792c) by Abgent was used as the granzyme M antibody.

[5] = tested on: nucleophosmin (NPM) in U937; assay: Western blot of nucleophosmin (NPM) fragments; type: cell-based, human
From the text: (§5) By the same method as FIG. 2C, protein groups extracted from the respective cells of U937, HL60 and Colo201 were molecular weight fractionated by way of electrophoresis of a conventional method, and the behavior of nucleophosmin (NPM), which is a cell survival factor (anti-apoptotic factor), was further investigated by the western blot method of a conventional method. It should be noted that monoclonal anti-GB23 (nucleophosmin/NPM) (catalog number B0556), which is an anti-NPM antibody, was purchased from Sigma-Aldrich (Saint Louis, Mo., USA).
NPM fragments were recovered by the immunoprecipitation method, and the N-terminal amino acids at the cleavage site of NPM were analyzed to carry out identification of the protease participating in the cleavage of NPM. It should be noted that “LC” in FIG. 3B is a light chain of the antibody used in immunoprecipitation.

[6] = tested on: perforin in HL60 cells; assay: Western blot, expression of perforin; type: cell-based, human; conditions: 5 μM AraC, FIG. 6
Method: as §1, §2

[7] = tested on: PARP and caspase-3 in U937 cells; assay: Expression of apoptosis associated proteins after AraC; type: cell-based, human; conditions: 5 μM AraC, 0 h, 3 hours, 6 hours, FIG. 2C
Method: Immediately after culturing start (0 h) under the administration of 5 μM of AraC, after 3 hours and after 6 hours, the expression of apoptosis associated proteins of U937 cells was measured.

[8] = molecular target: T2, granzyme M in U937 cells (Homo sapiens, UniProt P51124); assay: Granzyme M activity in extracted protein group (substrate, OD 405 nm); type: cell-based; conditions: 5 μM AraC, 0 h, 3, 5 and 7 hours, FIG. 7
T2 construct: endogenous in cells; host or cells: U937, HL60
T2 sequence (P51124 26-257): T1 sequence (P51124 26-257)
Method: as §3, §4
Next, using protein groups arrived at by administering serine protease inhibitor (50 μM TPCK) to the culture medium, culturing U937 cells under the same conditions for 7 hours, and recovering, the absorbance was measured in the same way as above. The vertical axis in FIG. 3 is the activity relative value for granzyme M calculated based on the absorbance.

[9] = tested on: nucleophosmin (NPM) in Colo201; assay: Western blot of nucleophosmin (NPM) fragments; type: cell-based, human; conditions: after AraC administration, FIG. 3A
From the text: as §5

[10] = tested on: nucleophosmin (NPM) in HL60; assay: Western blot of nucleophosmin (NPM) fragments; type: cell-based, human; conditions: after AraC administration, FIG. 3A
From the text: as §5

[11] = tested on: HL60 cells; assay: Cell growth / viability, Cell Counting Kit 8 (WST-8); type: cell-based, human; conditions: AraC 1, 5, 10 and 50 μm, 24 hours, FIG. 2A, p<0.01
Method: (§6) Using U937 cells and HL60 cells, which are human leukemia cells, and Colo201, which are human colon cancer cells (all purchased from cell bank), 3×10^3 of each cell were seeded in 96 well plates, and then cultured with 100 μl of RPMI cell medium (containing 10% fetal bovine serum (FBS), 2 mM L-glutamine, 100 units/ml penicillin, 100 μg/ml streptomycin, 250 ng/ml amphoterin B) per each well. At this time, AraC (cylocide) being used in the treatment of acute myelocytic leukemia by conventional pathology was added to the culture medium at the respective concentrations of 1, 5, 10 and 50 μm, and cultured under the conditions of 37° C. and 5% CO2 for 24 hours. Subsequently, 10 μl of WST-8 solution was placed per 1 well, and cultured at 37° C. for 4 hours.
(§7) The growth of cells was measured using a Cell Counting Kit 8 (Dojindo). This method is a measurement method establishing the dehydrogenase activity in viable cells as an index, and performs measurement of viable cell count based on WST-8 (2-(2-methoxy-4-nitrophenyl)-3-(4-nitrophenyl)-5-(2,4-disulfophenyl)-2H-tetrazolium, monosodium salt), which is a tetrazolium salt, being reduced to form formazan. More specifically, using a spectrophotometer Multiscan JX (Thermo Labsystems, Waltham, Mass.), the absorbance at 450 nm was measured, and the absorbance at 690 nm was used as the reference. The vertical axis in the graph of FIG. 2A represents the extent of cell viability by relative value.

[12] = tested on: Colo201; assay: as above; type: cell-based, human; conditions: AraC 1, 5, 10 and 50 μm, 24 hours, FIG. 2A
Method: as §6, §7

[13] = tested on: U937 cells; assay: as above; type: cell-based, human; conditions: AraC 1, 5, 10 and 50 μm, 24 hours, FIG. 2A, p<0.01
Method: as §6, §7

[14] = molecular target: T3, granzyme M in Hela cells (Homo sapiens, UniProt P51124); assay: Granzyme M activity in extracted protein group (substrate, OD 405 nm); type: cell-based; conditions: CDDP 50 μM, 24 hours culture, incubation 10 min, 8 hr (P<0.05), 21 hr (P<0.01) vs. control, FIG. 11
T3 construct: endogenous in cells; host or cells: Hela
T3 sequence (P51124 26-257): T1 sequence (P51124 26-257)
Method: as §4
Using Hela cells, which are human solid carcinoma cells, the action causing granzyme M activity of CDDP 50 μM conventionally used as a curative drug for solid carcinoma was investigated by culturing Hela cells for 24 hours at the same conditions as Test Example 5. The vertical axis in FIG. 11 is the activity relative value for granzyme M calculated based on the absorbance, and on the horizontal axis are test groups having incubation times of “10 min”, “8 hr” (8 hours) and “21 hr” (21 hours), in which “control” is the substrate without CDDP, and “CDDP” is the substrate and CDDP addition.

[15] = tested on: U937 cells; assay: Viable cell count by tryptan blue method; type: cell-based, human; conditions: inhibitor alone 0.75 mg/ml, 14 hours
Method: […] To 48 well plates, 5×10^5 of each cell (U937 cells and HL60 cells) were seeded, and culturing was initiated with 200 μl of culture medium per well. Fourteen hours after culturing initiation, the number of viable cells was measured by the tryptan blue method (mixing a cell suspension and tryptan blue solution in 1:1, placing in a hemocytometer, and counting the number of cells using an optical microscope). It should be noted that Ac-KVPL-CMK was synthesized based on the tertiary structure of granzyme M (L. Wu et. al., Structural basis for proteolytic specificity of the human apoptosis-inducing granzyme M, J. Immunol., 2009; 183: 421-429).

[16] = tested on: HL60 cells; assay: Viable cell count by tryptan blue method; type: cell-based, human; conditions: inhibitor alone 0.75 mg/ml, 14 hours
Method: Ac-KVPL-CMK, which is an inhibitor specific to granzyme M, was added to the culture medium (5 μM AraC) in an amount making a final concentration of 0.75 mg/ml, and then pre-incubated. To 48 well plates, 5×10^5 of each cell (U937 cells and HL60 cells) were seeded, and culturing was initiated with 200 μl of culture medium per well. Fourteen hours after culturing initiation, the number of viable cells was measured by the tryptan blue method (mixing a cell suspension and tryptan blue solution in 1:1, placing in a hemocytometer, and counting the number of cells using an optical microscope). It should be noted that Ac-KVPL-CMK was synthesized based on the tertiary structure of granzyme M (L. Wu et. al., Structural basis for proteolytic specificity of the human apoptosis-inducing granzyme M, J. Immunol., 2009; 183: 421-429).

Structure (SMILES): Nc1ccn([C@@H]2O[C@H](CO)[C@@H](O)[C@@H]2O)c(=O)n1 [AraC]
- expression level of granzyme M [1]: tendency of the expression level being exacerbated depending on the time elapsed
- expression of perforin [2]: not induced
- activity of granzyme M (relative value) [3]: increases along with the elapse of time
- expression level of granzyme M [4]: unrelated to the elapse of AraC administration time
- cleavage site of NPM fragment (N-terminal amino acid sequence AAED) ([5]; NPM fragments recovered by immunoprecipitation after AraC administration, FIG. 3B): cleaved by Leu-158 of NPM
- fragments of NPM ([5]; U937, after AraC administration, FIG. 3A): detected along with the elapse of time
- expression of perforin [6]: not recognized
- PARP decomposition [7]: decomposed along with the elapse of time
- caspase-3 decomposition [7]: decomposed along with the elapse of time
- activity of granzyme M (relative value) [8]: increases along with the elapse of time
- fragments of NPM [9]: not detected
- fragments of NPM [10]: detected along with the elapse of time
- cell death (cell viability, relative value) [11]: concentration dependently induced
- cell death (cell viability, relative value) [12]: not induced
- cell death (cell viability, relative value) [13]: concentration dependently induced

Structure (SMILES): [NH2][Pt]([NH2])([Cl])[Cl] [CDDP, cisplatin]
- activity of granzyme M (relative value) [14]: increased with the elapse of time

Structure (SMILES): CC(=O)N[C@@H](CCCCN)C(=O)N[C@H](C(=O)N1CCC[C@H]1C(=O)N[C@@H](CC(C)C)C(=O)CCl)C(C)C [granzyme M-specific inhibitor, Ac-KVPL-CMK] (Ac-KVPL-CH2Cl)
- viable cell count, sole administration vs. control group [15]: significant difference in viable cell count was not confirmed
- viable cell count, sole administration vs. control group [16]: significant difference in viable cell count was not confirmed
